Measured values reported in ChEMBL document CHEMBL1681728, “An automated, polymer-assisted strategy for the preparation of urea and thiourea derivatives of 15-membered azalides as potential antimalarial chemotherapeutics” (Bioorg Med Chem, 2011).

How the values were obtained:
Type in all cases: functional, organism-based
Plasmodium falciparum [1] = experiment: Antimalarial activity against chloroquine-,pyrimethamine-resistant Plasmodium falciparum W2 assessed as inhibition of [3H]hypoxanthine incorporation after 96 hrs by microtiter plate scintillation counting
Plasmodium falciparum [2] = experiment: Antimalarial activity against chloroquine-sensitive Plasmodium falciparum D6 assessed as inhibition of [3H]hypoxanthine incorporation after 96 hrs by microtiter plate scintillation counting
Plasmodium falciparum [3] = experiment: Antimalarial activity against multidrug-resistant Plasmodium falciparum TM91C235 assessed as inhibition of [3H]hypoxanthine incorporation after 96 hrs by microtiter plate scintillation counting

CC[C@H]1OC(=O)[C@H](C)[C@@H](O[C@H]2C[C@@](C)(OC)[C@@H](O)[C@H](C)O2)[C@H](C)[C@@H](O[C@@H]2O[C@H](C)C[C@H](N(C)C)[C@H]2O)[C@](C)(O)C[C@@H](C)CN(CCCNC(=O)Nc2ccc(C)cc2C)[C@H](C)[C@@H](O)[C@]1(C)O was tested, and the IC50 (Plasmodium falciparum [1]) was 179 nM, the IC50 (Plasmodium falciparum [2]) was 470 nM and the IC50 (Plasmodium falciparum [3]) was 232 nM.

CC[C@H]1OC(=O)[C@H](C)[C@@H](O[C@H]2C[C@@](C)(OC)[C@@H](O)[C@H](C)O2)[C@H](C)[C@@H](O[C@@H]2O[C@H](C)C[C@H](N(C)C)[C@H]2O)[C@](C)(O)C[C@@H](C)CN(CCCNC(=O)NC2CCN(C(=O)OCc3ccccc3)CC2)[C@H](C)[C@@H](O)[C@]1(C)O was tested, and the IC50 (Plasmodium falciparum [1]) was 276 nM, the IC50 (Plasmodium falciparum [2]) was 635 nM and the IC50 (Plasmodium falciparum [3]) was 236 nM.

CC[C@H]1OC(=O)[C@H](C)[C@@H](O[C@H]2C[C@@](C)(OC)[C@@H](O)[C@H](C)O2)[C@H](C)[C@@H](O[C@@H]2O[C@H](C)C[C@H](N(C)C)[C@H]2O)[C@](C)(O)C[C@@H](C)CN(CCCNC(=S)NCc2ccco2)[C@H](C)[C@@H](O)[C@]1(C)O was tested, and the IC50 (Plasmodium falciparum [1]) was 449 nM, the IC50 (Plasmodium falciparum [2]) was 329 nM and the IC50 (Plasmodium falciparum [3]) was 240 nM.

With CCc1ccccc1NC(=S)NCCCN1C[C@H](C)C[C@@](C)(O)[C@H](O[C@@H]2O[C@H](C)C[C@H](N(C)C)[C@H]2O)[C@@H](C)[C@H](O[C@H]2C[C@@](C)(OC)[C@@H](O)[C@H](C)O2)[C@@H](C)C(=O)O[C@H](CC)[C@@](C)(O)[C@H](O)[C@H]1C the IC50 (Plasmodium falciparum [1]) was 96.2 nM, the IC50 (Plasmodium falciparum [2]) was 445 nM and the IC50 (Plasmodium falciparum [3]) was 252 nM.

Compound CC[C@H]1OC(=O)[C@H](C)[C@@H](O[C@H]2C[C@@](C)(OC)[C@@H](O)[C@H](C)O2)[C@H](C)[C@@H](O[C@@H]2O[C@H](C)C[C@H](N(C)C)[C@H]2O)[C@](C)(O)C[C@@H](C)CN(CCCNC(=O)Nc2ccc3c(c2)OCO3)[C@H](C)[C@@H](O)[C@]1(C)O has an IC50 (Plasmodium falciparum [1]) of 111 nM, an IC50 (Plasmodium falciparum [2]) of 835 nM and an IC50 (Plasmodium falciparum [3]) of 265 nM.

For CC[C@H]1OC(=O)[C@H](C)[C@@H](O[C@H]2C[C@@](C)(OC)[C@@H](O)[C@H](C)O2)[C@H](C)[C@@H](O[C@@H]2O[C@H](C)C[C@H](N(C)C)[C@H]2O)[C@](C)(O)C[C@@H](C)CN(CCCNC(=S)NC(=O)c2ccccc2)[C@H](C)[C@@H](O)[C@]1(C)O, the IC50 (Plasmodium falciparum [1]) was 107 nM, the IC50 (Plasmodium falciparum [2]) was 298 nM and the IC50 (Plasmodium falciparum [3]) was 288 nM.

CC[C@H]1OC(=O)[C@H](C)[C@@H](O[C@H]2C[C@@](C)(OC)[C@@H](O)[C@H](C)O2)[C@H](C)[C@@H](O[C@@H]2O[C@H](C)C[C@H](N(C)C)[C@H]2O)[C@](C)(O)C[C@@H](C)CN(CCCNC(=S)Nc2ccc(N(CC)CC)cc2)[C@H](C)[C@@H](O)[C@]1(C)O was tested, and the IC50 (Plasmodium falciparum [1]) was 684 nM, the IC50 (Plasmodium falciparum [2]) was 765 nM and the IC50 (Plasmodium falciparum [3]) was 298 nM.

Work on CC[C@H]1OC(=O)[C@H](C)[C@@H](O[C@H]2C[C@@](C)(OC)[C@@H](O)[C@H](C)O2)[C@H](C)[C@@H](O[C@@H]2O[C@H](C)C[C@H](N(C)C)[C@H]2O)[C@](C)(O)C[C@@H](C)CN(CCCNC(=O)Nc2cc(C)oc2C(F)(F)F)[C@H](C)[C@@H](O)[C@]1(C)O yielded an IC50 (Plasmodium falciparum [1]) of 310 nM, an IC50 (Plasmodium falciparum [2]) of 361 nM and an IC50 (Plasmodium falciparum [3]) of 320 nM.

CC[C@H]1OC(=O)[C@H](C)[C@@H](O[C@H]2C[C@@](C)(OC)[C@@H](O)[C@H](C)O2)[C@H](C)[C@@H](O[C@@H]2O[C@H](C)C[C@H](N(C)C)[C@H]2O)[C@](C)(O)C[C@@H](C)CN(CCCNC(=S)Nc2ccsc2C(=O)OC)[C@H](C)[C@@H](O)[C@]1(C)O showed an IC50 (Plasmodium falciparum [1]) of 375 nM, an IC50 (Plasmodium falciparum [2]) of 452 nM and an IC50 (Plasmodium falciparum [3]) of 330 nM.

For CC[C@H]1OC(=O)[C@H](C)[C@@H](O[C@H]2C[C@@](C)(OC)[C@@H](O)[C@H](C)O2)[C@H](C)[C@@H](O[C@@H]2O[C@H](C)C[C@H](N(C)C)[C@H]2O)[C@](C)(O)C[C@@H](C)CN(CCCNC(=S)NCCCSC)[C@H](C)[C@@H](O)[C@]1(C)O, the IC50 (Plasmodium falciparum [1]) was 202 nM, the IC50 (Plasmodium falciparum [2]) was 898 nM and the IC50 (Plasmodium falciparum [3]) was 354 nM.

CCCCNC(=S)NCCCN1C[C@H](C)C[C@@](C)(O)[C@H](O[C@@H]2O[C@H](C)C[C@H](N(C)C)[C@H]2O)[C@@H](C)[C@H](O[C@H]2C[C@@](C)(OC)[C@@H](O)[C@H](C)O2)[C@@H](C)C(=O)O[C@H](CC)[C@@](C)(O)[C@H](O)[C@H]1C was tested, and the IC50 (Plasmodium falciparum [1]) was 188 nM, the IC50 (Plasmodium falciparum [2]) was 655 nM and the IC50 (Plasmodium falciparum [3]) was 382 nM.

CC[C@H]1OC(=O)[C@H](C)[C@@H](O[C@H]2C[C@@](C)(OC)[C@@H](O)[C@H](C)O2)[C@H](C)[C@@H](O[C@@H]2O[C@H](C)C[C@H](N(C)C)[C@H]2O)[C@](C)(O)C[C@@H](C)CN(CCCNC(=O)Nc2ccc(C(C)=O)cc2)[C@H](C)[C@@H](O)[C@]1(C)O was tested, and the IC50 (Plasmodium falciparum [1]) was 709 nM, the IC50 (Plasmodium falciparum [2]) was 1730 nM and the IC50 (Plasmodium falciparum [3]) was 398 nM.

In the case of CC[C@H]1OC(=O)[C@H](C)[C@@H](O[C@H]2C[C@@](C)(OC)[C@@H](O)[C@H](C)O2)[C@H](C)[C@@H](O[C@@H]2O[C@H](C)C[C@H](N(C)C)[C@H]2O)[C@](C)(O)C[C@@H](C)CN(CCCNC(=O)NCCc2cccs2)[C@H](C)[C@@H](O)[C@]1(C)O, the IC50 (Plasmodium falciparum [1]) is reported as 1040 nM, the IC50 (Plasmodium falciparum [2]) is reported as 932 nM and the IC50 (Plasmodium falciparum [3]) is reported as 405 nM.

CC[C@H]1OC(=O)[C@H](C)[C@@H](O[C@H]2C[C@@](C)(OC)[C@@H](O)[C@H](C)O2)[C@H](C)[C@@H](O[C@@H]2O[C@H](C)C[C@H](N(C)C)[C@H]2O)[C@](C)(O)C[C@@H](C)CN(CCCNC(=S)Nc2sc3c(c2C(=O)OC)CCCC3)[C@H](C)[C@@H](O)[C@]1(C)O gave an IC50 (Plasmodium falciparum [1]) of 229 nM, an IC50 (Plasmodium falciparum [2]) of 825 nM and an IC50 (Plasmodium falciparum [3]) of 407 nM.

In the case of CC[C@H]1OC(=O)[C@H](C)[C@@H](O[C@H]2C[C@@](C)(OC)[C@@H](O)[C@H](C)O2)[C@H](C)[C@@H](O[C@@H]2O[C@H](C)C[C@H](N(C)C)[C@H]2O)[C@](C)(O)C[C@@H](C)CN(CCCNC(=O)Nc2cc(C(=O)OC)cc(C(=O)OC)c2)[C@H](C)[C@@H](O)[C@]1(C)O, the IC50 (Plasmodium falciparum [1]) is reported as 120 nM, the IC50 (Plasmodium falciparum [2]) is reported as 648 nM and the IC50 (Plasmodium falciparum [3]) is reported as 411 nM.

In the case of CC[C@H]1OC(=O)[C@H](C)[C@@H](O[C@H]2C[C@@](C)(OC)[C@@H](O)[C@H](C)O2)[C@H](C)[C@@H](O[C@@H]2O[C@H](C)C[C@H](N(C)C)[C@H]2O)[C@](C)(O)C[C@@H](C)CN(CCCNC(=O)NC2CCCCC2)[C@H](C)[C@@H](O)[C@]1(C)O, the IC50 (Plasmodium falciparum [1]) is reported as 185 nM, the IC50 (Plasmodium falciparum [2]) is reported as 1960 nM and the IC50 (Plasmodium falciparum [3]) is reported as 411 nM.

For CC[C@H]1OC(=O)[C@H](C)[C@@H](O[C@H]2C[C@@](C)(OC)[C@@H](O)[C@H](C)O2)[C@H](C)[C@@H](O[C@@H]2O[C@H](C)C[C@H](N(C)C)[C@H]2O)[C@](C)(O)C[C@@H](C)CN(C)[C@H](C)[C@@H](O)[C@]1(C)O [AZITHROMYCIN], the IC50 (Plasmodium falciparum [1]) was 2240 nM, the IC50 (Plasmodium falciparum [2]) was 1020 nM and the IC50 (Plasmodium falciparum [3]) was 2060 nM.
